Measurements published in US12486218B2, “Compounds advantageous in the treatment of central nervous system diseases and disorders” (AurimMed Pharma, Inc., priority 2008, dated 2025).

How the values were obtained:
[1] = tested on: type II SMA fibroblasts (GM03813); assay: SMN protein localization, gem counting in type II SMA fibroblasts; assay type: cell-based; conditions: 100 nM-10 μM, 5 days
Description: To validate the SMN2 promoter and exon 7 screens, the effects of compounds H, H (acid form), AY, F, BX, and BY were evaluated on the basis of expression and localization of SMN protein in type II SMA fibroblasts (GM03813). In a normal cell, SMN protein localized within the nucleus to discreet foci known as gems. In SMN-deficient SMA cells, the number of gems is greatly diminished. Although the function of gems is unknown, it is believed that they are somehow involved in the snRNP assembly function of SMN. Gem counting can, therefore, be considered an assay for SMN function.
GM03813 fibroblasts were treated with different doses (100 nM-10 μM) of compounds H, H (acid form), AY, F, BX, and BY for 5 days. SMN immunostaining was then completed on these cells and the number of gems was counted in 100 randomly-selected nuclei. […] In fact, the gem counts at the highest dose of compound H approach those observed for carrier fibroblasts (GM03814). When compared against treatment with 1 μM D157495—a D156844 derivative, all of the compounds tested performed as well as or, even better than D157495.

mice [2] = assay: Maximal Electroshock Seizure (MES) test, mice i.p.; assay type: in vivo; conditions: for activity in the MES test: mice
rats [3] = assay: MES test, rats p.o.; assay type: in vivo; conditions: at 30 mg/kg
rats [4] = assay: Pilocarpine-induced Status Epilepticus in Rats (prevention; intervention @ 30 min); conditions: Rattus norvegicus
Description: The animal testing was performed using the protocols developed in the Anticonvulsant Screening Program (ASP) at the National Institute of Neurological Disorders and Stroke (NINDS), National Institutes of Health (NIH).

mice [5] = assay: Subcutaneous Metrazol Seizure threshold (s.c. MET) test, mice i.p.; assay type: in vivo
[6] = tested on: rat dopaminergic N27 cells; assay: N27 protection assay against oxidative stress (H2O2 or MPP+; MTT and LDH); assay type: cell-based; conditions: drug 24 hours before 200 μM H2O2 or 640 μM MPP+
Source text: FIGS. 20A-25D data are shown illustrating neuroprotective and neuroregenerative effects observed in rat dopaminergic N27 cells. Rat dopaminergic N27 cells are commonly used in in vitro and in vivo model systems for studying Parkinson's disease. Parkinson's disease is a neurodegenerative disorder of the central nervous system that affects more than 6 million people worldwide. The motor symptoms of Parkinson's disease result from the death of dopamine generating cells in the substantia nigra, a region of the midbrain.
The N27 rat dopaminergic neuron cell line was harvested from E12 rat mesencephalic tissue and was transfected with SV40 to immortalize the cell line. The N27 cell line, when injected into the striata of 6-hydroxydopamine-lesioned rats (an animal model of PD) caused a time-dependent improvement in neurological deficits. This immortalized cell line has been carefully characterized in studies of dopamine biosynthesis, neurotoxicity and used as a dopaminergic neuron model studies.
The N27 in vitro Parkinson's disease model included a test of cell viability and cell toxicity in response to exposure to oxidative stress (e.g., either 200 μM H2O2 or 640 μM MPP+).
Cell viability was tested using the MTT assay. The MTT assay is a colorimetric analysis based on the activities of mitochondrial NAD(P)H-dependent cellular oxidoreductase enzymes. These enzymes are capable of reducing the tetrazolium dye, MTT [3-(4,5-dimethylthiazol-2-yl)-2,5-diphenyltetrazolium] bromide, to an insoluble formazan (purple). […] More viable cells equal more accumulation of the insoluble formazan dye.
Cell toxicity was tested using the […] (LDH) assay. Cells that are stressed secrete LDH. In general, the more cells are stressed, the LDH they secrete into their media. The LDH assay is a reliable colorimetric assay to measure quantitatively the […] (LDH) that is released into the cell culture media from damaged cells as a biomarker for cytotoxicity and cytolysis.
FIGS. 20A-25D present data from two types of assays: protection and recovery assays. In the protection assays, the drug candidate was applied to the cells at various concentrations for 24 hours, followed by the exposure to oxidative stress (either 200 μM H2O2 or 640 μM MPP+) for measuring neuroprotective effect. H2O2 provides a broad measure of oxidative stress, while MPP+ gives a more specific oxidative stress to dopaminergic neurons.
The protection assay results are shown in panels A-C of FIGS. 20-25 In the recovery assays, the cells were first damaged by exposure to H2O2 and then various concentrations of the drug were applied to the cells. The results for the recovery assays are shown the D panels of FIGS. 20-25.

mice [7] = assay: Minimal motor impairment (MID50), mice i.p.; conditions: mice i.p.; @ 0.25 hr
Description: The animal testing was performed according to methods known in the relevant art.

mice [8] = assay: 6 Hz (minimal clonic seizure) model, mice i.p.; assay type: in vivo; conditions: mice i.p.
SMN2 promoter = SMN2 promoter β-lactamase reporter assay in NSC34 motor neuron-like cells; assay type: cell-based; conditions: for Promoter (SMN2 promoter test, summary YES/NO): Table 13 summary; for SMN2 promoter activity: treatment for 19 hours at a concentration of 1 μM
Description: FIG. 30 illustrates a screen for SMN2 expression of a number of compounds described herein.
SMN2 promoter activity was measured using NSC34 motor neuron-like cells stably transfected with a β-lactamase (BLA) reporter gene under the control of a 3.4-kilobase fragment of the SMN2 promoter. D156844 was used as a positive control for this assay.

[9] = tested on: inclusion of exon 7 in SMN2 mRNAs; assay: Exon 7 inclusion BLA reporter assay in NSC34 cell line; assay type: cell-based
Source text: To measure changes in the inclusion of exon 7 in SMN2 mRNAs, another NSC34 cell line was used that stably transfected with a reporter construct which expresses BLA when exon 7 is included in the SMN2 minigene mRNAs. 5-(N-ethyl-N-isopropyl)-amiloride (EIPA) was used as a positive control for this assay. Data for tis assay is illustrated in FIG. 30.

[10] = read-out: Prevention, Protection
[11] = NSC34 exon 7 BLA reporter cells

With `CC(CC(=O)O)c1ccc(OC(F)(F)F)cc1` (racemic) [H (acid form)] the “gem counts (SMN immunostaining, 100 nuclei)” value [1] was “increase gem counts in a dose-dependent manner” and the “relative potency in increasing gem counts” value [1] was “most potent”.
In the case of `NC(=O)[C@@H]1C[C@H]1c1ccccc1` (relative stereo) [Compound P, trans-2-phenylcyclopropane-1-carboxamide], the “activity in the MES test” value (mice [2]; at 300 mg/kg) is reported as “activity”, the “activity in the MES test” value (rats [3]) is reported as “activity” and the responders at 450 mg/kg (rats [4]; [10]) is reported as 100%.
`NC(=O)CC1(c2ccc(Cl)cc2)CC1` [AH] was tested, and the MES ED50 (mice [2]; mice i.p., @ 0.25 hr) was 69.6 mg/kg, the “s.c. MET ED50” value (mice [5]; mice i.p., @ 0.25 hr, in mg/kg) was 77.98 and the “neuroprotective effect against H2O2 and MPP+ oxidative stresses (MTT and LDH assays)” value [6] was “statistically significant, dose-dependent neuroprotection”. The “MID50 (TD50)” value (mice [7]) was 185.73.
For `COc1ccc(C(CC(N)=O)C2CC2)cc1` (stereo not shown) [AM, 3-Cyclopropyl-3-(4-methoxy-phenyl)-propionamide], the “MES, fraction of animals” value (mice [2]; mice i.p., 100 mg/kg @ 0.25 hr) was 1/3 @, the “activity in the MES test” value (mice [2]; at 100 mg/kg) was “activity” and the “6 Hz (32 mA), fraction of animals” value (mice [8]; 100 mg/kg @ 0.25 hr) was 1/4. For the same molecule, the “6 Hz (32 mA), fraction of animals” value (mice [8]; 100 mg/kg @ 0.5 hr) was 2/4, the “6 Hz (32 mA), fraction of animals” value (mice [8]; 100 mg/kg @ 1.0 hr) was 1/4 @ and the “activity in the MES test” value (rats [3]) was “activity”. For the same molecule, the “SMN2 promoter assay, particularly strong hits” value (SMN2 promoter; NSC34 BLA reporter cells) was “Particularly strong hits”, the “Promoter (SMN2 promoter test, summary YES/NO)” value (SMN2 promoter) was “YES” and the SMN2 promoter activity (SMN2 promoter) was “increased SMN2 promoter activity”. For the same molecule, the “effect on the inclusion of exon 7 in SMN2 transcripts” value [9, 11] was “positive effect on the inclusion of exon 7”, the “exon 7 test, particularly strong hits” value [9, 11] was “Particularly strong hits” and the “Exon 7 inclusion (summary YES/NO)” value ([9]; Table 13 summary) was “YES”. For the same molecule, the responders at 400 mg/kg (rats [4]; 0.5 h, read-out: Intervention @ 30 min, Protection) was 38% and the responders at 200 mg/kg (rats [4]; [10]) was 100%.
`CC(C)C(CC(N)=O)c1ccc(F)cc1` (stereo not shown) [AQ, 3-(4-Fluoro-phenyl)-4-methyl-pentanoic acid-amide] was tested, and the “activity in the MES test” value (mice [2]; at 100 mg/kg) was “activity”, the “activity in the s.c. MET test” value (mice [5]; mice, at 300 mg/kg) was “activity” and the “activity in the MES test” value (rats [3]) was “activity”. The “SMN2 promoter assay, evidence of activity (may warrant further study)” value (SMN2 promoter; NSC34 BLA reporter cells) was “show evidence of activity” and the responders at 65 mg/kg (rats [4]; [10]) was 86%.
`COc1ccc(C(CC(N)=O)C(C)C)cc1C` (stereo not shown) [AS, 3-(4-Methoxy-3-methyl-phenyl)-4-methylpentanoic acid amide] was tested, and the “activity in the MES test” value (mice [2]; at 100 mg/kg) was “activity”, the “activity in the MES test” value (rats [3]) was “activity” and the “neuroprotective effect against H2O2 and MPP+ oxidative stresses (MTT and LDH assays)” value [6] was “potent dose-dependent neuroprotective effects”. For the same molecule, the “Promoter (SMN2 promoter test, summary YES/NO)” value (SMN2 promoter) was “YES”, the SMN2 promoter activity (SMN2 promoter) was “increased SMN2 promoter activity” and the responders at 200 mg/kg (rats [4]; [10]) was 100%.
`CC(CC(=O)N1CCCC1)c1ccc(OC(F)(F)F)cc1` (stereo not shown) [BG, 1-Pyrrolidin-1-yl-3-(4-trifluoromethoxy-phenyl)-butan-1-one] was tested, and the “MES, fraction of animals” value (mice [2]; mice i.p., 100 mg/kg @ 0.5 hr) was 1/3 @, the “activity in the MES test” value (mice [2]; at 100 mg/kg) was “activity” and the “activity in the MES test” value (rats [3]) was “activity”.
